Several values for one entry are separate records, joined by “and”; a condition that tells them apart may be missing. Equal entries are not always repeated. Toxic doses and inconclusive results are not listed. Residues, ends and D or L forms follow the SMILES beside them. *: point of attachment. Cbz = O=C(OCc1ccccc1)*; OBn = c1ccc(CO*)cc1; Bn = c1ccc(C*)cc1

This experiment deals with BDF1 mice, P388 leukemia ip, median survival T/C. As to the kind of experiment: NCI In Vivo Anticancer Drug Screen. Data for tumor model P388 Leukemia (intraperitoneal) in B6D2F1 (BDF1) mice. The note with it: endpoint: median survival time, higher = longer survival. Summed up: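 T/C = treated-group survival ÷ vehicle-control survival; tumour transplanted into mice before dosing.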

Where [1] appears, read: dose: 50.0 mg/kg/injection, schedule: Q01DX009 (ip), vehicle: saline.
[2] abbreviates: dose: 100.0 mg/kg/injection, schedule: Q01DX009 (ip), vehicle: saline.
[3] abbreviates: dose: 100.0 mg/kg/injection, schedule: Q04DX003 (ip), vehicle: saline.
Where [4] appears, read: dose: 200.0 mg/kg/injection, schedule: Q01DX009 (ip), vehicle: saline.
Where [5] appears, read: dose: 200.0 mg/kg/injection, schedule: Q04DX003 (ip), vehicle: saline.
Where [6] appears, read: dose: 50.0 mg/kg/injection, schedule: Q01DX009 (ip), vehicle: saline with Tween-80.
Where [7] appears, read: dose: 12.5 mg/kg/injection, schedule: Q01DX009 (ip), vehicle: Klucel (hydroxypropylcellulose) (HPC).
Setting [8] is: dose: 25.0 mg/kg/injection, schedule: Q01DX009 (ip), vehicle: Klucel (hydroxypropylcellulose) (HPC).
The mark [9] stands for this setting: dose: 50.0 mg/kg/injection, schedule: Q01DX009 (ip), vehicle: Klucel (hydroxypropylcellulose) (HPC).
[10] abbreviates: dose: 100.0 mg/kg/injection, schedule: Q04DX003 (ip), vehicle: Klucel (hydroxypropylcellulose) (HPC).
Setting [11] is: dose: 200.0 mg/kg/injection, schedule: Q04DX003 (ip), vehicle: Klucel (hydroxypropylcellulose) (HPC).
The mark [12] stands for this setting: dose: 400.0 mg/kg/injection, schedule: Q04DX003 (ip), vehicle: Klucel (hydroxypropylcellulose) (HPC).

As for `CCCCNC(C)(C)C(=O)c1cccs1`, the T/C was 100 % of control (dose: 25.0 mg/kg/injection, schedule: Q01DX009 (ip), vehicle: saline); 100 % of control under setting [1]; 100 % of control (dose: 50.0 mg/kg/injection, schedule: Q04DX003 (ip), vehicle: saline); 100 % of control under setting [2]; 118 % of control under setting [3].

On to `CC(C)(C)OC(=O)NO`, for which the T/C was 105 % of control under setting [2]; 91 % of control under setting [3]; 95 % of control under setting [4]; 95 % of control under setting [5]; 90 % of control (dose: 400.0 mg/kg/injection, schedule: Q01DX009 (ip), vehicle: saline); 95 % of control (dose: 400.0 mg/kg/injection, schedule: Q04DX003 (ip), vehicle: saline).

As for `NC(=S)N/N=C/c1ccc(-c2ccccc2)cc1`, the T/C is, setting by setting: (dose: 12.5 mg/kg/injection, schedule: Q01DX009 (ip), vehicle: saline with Tween-80) 90 % of control; (dose: 25.0 mg/kg/injection, schedule: Q01DX009 (ip), vehicle: saline with Tween-80) 109 % of control; under setting [6], 86 % of control.

On to `CCOC(=O)C(C(=O)OCC)=C(C#N)c1c[nH]c2ccccc12`, for which the T/C was 90 % of control under setting [7]; 104 % of control under setting [8]; 104 % of control under setting [9]; 95 % of control under setting [10]; 100 % of control under setting [11]; 109 % of control under setting [12].

As to `N#Cc1cn(C2OC(CO)C(O)C2O)c2nc(Cl)nc(N)c12` (stereo not drawn), the T/C runs as follows: (dose: 6.25 mg/kg/injection, schedule: Q04DX003 (ip), vehicle: saline) 112 % of control; (dose: 12.5 mg/kg/injection, schedule: Q04DX003 (ip), vehicle: saline) 166 % of control; (dose: 25.0 mg/kg/injection, schedule: Q04DX003 (ip), vehicle: saline) 166 % of control.

For the compound `CCOC(=O)C1=C(N)n2c(s/c(=C/c3ccc(N(C)C)cc3)c2=O)=C(C(=O)OCC)C1c1ccc(N(C)C)cc1` (stereo not drawn), the T/C is, setting by setting: (dose: 50.0 mg/kg/injection, schedule: Q01DX005 (ip), vehicle: saline with Tween-80) 101 % of control; (dose: 100.0 mg/kg/injection, schedule: Q01DX005 (ip), vehicle: saline with Tween-80) 97 % of control; (dose: 200.0 mg/kg/injection, schedule: Q01DX005 (ip), vehicle: saline with Tween-80) 99 % of control.

In the case of `COc1cc2c[n+](C)c3c4cc(OC)c(OC)cc4ccc3c2cc1OC`, the T/C (dose: 3.12 mg/kg/injection, schedule: Q01DX009 (ip), vehicle: water) is 98 % of control; the T/C (dose: 6.25 mg/kg/injection, schedule: Q01DX009 (ip), vehicle: water) is 112 % of control; the T/C (dose: 12.5 mg/kg/injection, schedule: Q01DX009 (ip), vehicle: water) is 118 % of control; the T/C (dose: 25.0 mg/kg/injection, schedule: Q01DX009 (ip), vehicle: other) is 153 % of control; the T/C (dose: 25.0 mg/kg/injection, schedule: Q01DX009 (ip), vehicle: water) is 120 % of control; the T/C (dose: 34.0 mg/kg/injection, schedule: Q01DX009 (ip), vehicle: saline) was 159 % of control. The T/C is, setting by setting: (dose: 50.0 mg/kg/injection, schedule: Q01DX009 (ip), vehicle: other) 174 % of control; under setting [1], 188 % of control; (dose: 50.0 mg/kg/injection, schedule: Q01DX009 (ip), vehicle: water) 100 % of control; (dose: 50.0 mg/kg/injection, schedule: Q04DX003 (ip), vehicle: water) 103 % of control; (dose: 52.0 mg/kg/injection, schedule: Q01DX009 (ip), vehicle: saline) 150 % of control; (dose: 80.0 mg/kg/injection, schedule: Q01DX009 (ip), vehicle: saline) 165 % of control and 172 % of control. Also, the T/C was 151 % of control (dose: 100.0 mg/kg/injection, schedule: Q01DX009 (ip), vehicle: Klucel (hydroxypropylcellulose) (HPC)); 172 % of control (dose: 100.0 mg/kg/injection, schedule: Q01DX009 (ip), vehicle: other); 200 % of control under setting [2]; 106 % of control (dose: 100.0 mg/kg/injection, schedule: Q01DX009 (ip), vehicle: water); 113 % of control under setting [3]; 120 % of control (dose: 100.0 mg/kg/injection, schedule: Q04DX003 (ip), vehicle: water). The T/C (dose: 120.0 mg/kg/injection, schedule: Q01DX009 (ip), vehicle: saline) is 155 % of control and 168 % of control; the T/C (dose: 180.0 mg/kg/injection, schedule: Q01DX009 (ip), vehicle: saline) was 159 % of control; the T/C under setting [4] is 183 % of control; the T/C under setting [5] was 95 % of control; the T/C (dose: 240.0 mg/kg/injection, schedule: Q01DX009 (ip), vehicle: saline) is 90 % of control; the T/C (dose: 240.0 mg/kg/injection, schedule: Q04DX003 (ip), vehicle: saline) is 150 % of control. Moreover, the T/C by setting is: (dose: 400.0 mg/kg/injection, schedule: Q04DX003 (ip), vehicle: water) 92 % of control; (dose: 600.0 mg/kg/injection, schedule: Q04DX003 (ip), vehicle: saline) 100 % of control.

For the compound `CC(C)CC(NC(=O)C(CSCc1ccccc1)NC(=O)OCc1ccccc1)C(=O)OCc1ccccc1` (stereo not drawn) (Cbz-Cys(Bn)-Leu-OBn; configuration not given here), the T/C is 104 % of control (dose: 100.0 mg/kg/injection, schedule: Q04DX003 (ip), vehicle: gum acacia); 100 % of control (dose: 200.0 mg/kg/injection, schedule: Q04DX003 (ip), vehicle: gum acacia); 100 % of control (dose: 400.0 mg/kg/injection, schedule: Q04DX003 (ip), vehicle: gum acacia).

As to `NC(=O)c1cn[nH]c1N`, the T/C by setting is: under setting [7], 95 % of control; under setting [8], 87 % of control; under setting [9], 91 % of control; under setting [10], 104 % of control; under setting [11], 100 % of control; under setting [12], 113 % of control.

As to `CC(=O)Nc1ccc2nc3ccc(NC(C)=O)cc3[n+](-c3ccccc3)c2c1`, the T/C is, setting by setting: (dose: 31.3 mg/kg/injection, schedule: Q01DX010 (ip), vehicle: saline) 168 % of control; (dose: 62.5 mg/kg/injection, schedule: Q01DX010 (ip), vehicle: saline) 172 % of control; (dose: 125.0 mg/kg/injection, schedule: Q01DX010 (ip), vehicle: saline) 181 % of control; (dose: 250.0 mg/kg/injection, schedule: Q01DX010 (ip), vehicle: saline) 150 % of control.

In the case of `Cc1cc(NCCN(C(C)C)C(C)C)nc(/N=C(\N)Nc2ccc(Cl)c(C(F)(F)F)c2)n1`, the T/C was 104 % of control (dose: 3.8 mg/kg/injection, schedule: Q04DX003 (ip), vehicle: Klucel (hydroxypropylcellulose) (HPC)); 95 % of control (dose: 4.68 mg/kg/injection, schedule: Q01DX009 (ip), vehicle: Klucel (hydroxypropylcellulose) (HPC)); 95 % of control (dose: 5.8 mg/kg/injection, schedule: Q04DX003 (ip), vehicle: Klucel (hydroxypropylcellulose) (HPC)); 100 % of control (dose: 9.37 mg/kg/injection, schedule: Q01DX009 (ip), vehicle: Klucel (hydroxypropylcellulose) (HPC)); 104 % of control (dose: 18.75 mg/kg/injection, schedule: Q01DX009 (ip), vehicle: Klucel (hydroxypropylcellulose) (HPC)); 116 % of control (dose: 20.0 mg/kg/injection, schedule: Q04DX003 (ip), vehicle: Klucel (hydroxypropylcellulose) (HPC)). The T/C is 95 % of control (dose: 26.0 mg/kg/injection, schedule: Q01DX009 (ip), vehicle: Klucel (hydroxypropylcellulose) (HPC)); 106 % of control (dose: 26.0 mg/kg/injection, schedule: Q04DX003 (ip), vehicle: Klucel (hydroxypropylcellulose) (HPC)); 106 % of control and 116 % of control (dose: 40.0 mg/kg/injection, schedule: Q04DX003 (ip), vehicle: Klucel (hydroxypropylcellulose) (HPC)); 123 % of control (dose: 60.0 mg/kg/injection, schedule: Q04DX003 (ip), vehicle: Klucel (hydroxypropylcellulose) (HPC)).

`Cc1cc(Cl)ccc1Nc1sc(C(=O)c2cc3cc(Cl)ccc3o2)c(N)c1C#N`: the T/C reads like this: under setting [6], 104 % of control; (dose: 100.0 mg/kg/injection, schedule: Q01DX009 (ip), vehicle: saline with Tween-80) 93 % of control; (dose: 200.0 mg/kg/injection, schedule: Q01DX009 (ip), vehicle: saline with Tween-80) 89 % of control.

Source of the values: PubChem BioAssay AID328 (DTP/NCI, 2004).
